Data as given in patent US11076595B2, “1-(n,n-disubstituted carbamoyl) 4-(substituted sulfonyl)triazolin-5-one derivative, 4-(n,n-disubstituted carbamoyl) 1-(substituted sulfonyl)triazolin-5-one derivative, and herbicide containing said derivative as active ingredient” (HOKKO CHEMICAL INDUSTRY CO., LTD., priority 2017, dated 2021).

What was measured:
Type in all cases: in vivo
Echinochloa crus-galli [1] = test: Test Example 11: herbicidal effect test by soil treatment in paddy field; conditions: 120 g/10a active ingredient, 14 days after treatment
How it was run: (§1)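 Dry weight at day 14 relative to untreated controls gives the suppression rate; duplicate pots. Treatment: 120 g a.i./10 are into paddy water at sowing.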

Lindernia pyxidaria [2] = test: as above; conditions: 120 g/10a active ingredient, 14 days after treatment
How it was run: as §1

Monochoria vaginalis [3] = test: as above; conditions: 120 g/10a active ingredient, 14 days after treatment
How it was run: as §1

Scirpus juncoides [4] = test: as above; conditions: 120 g/10a active ingredient, 14 days after treatment
How it was run: as §1

Echinochloa crus-galli [5] = test: Test Example 12: herbicidal effect test by treatment during growing period in paddy field; conditions: 120 g/10a; treatment seven days after sowing in flooded paddy pot; assessed 14 days after treatment
How it was run: (§2)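 Seeds (30 per species) are sown shallowly into fertilized, puddled paddy soil kept under ~3 cm of water in a greenhouse. One week later, compound formulated as an emulsifiable concentrate is applied dropwise to the water at 120 g a.i./10 are. After 14 days, dry weights give percent suppression against untreated controls.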

Lindernia pyxidaria [6] = test: as above; conditions: 120 g/10a; treatment seven days after sowing in flooded paddy pot; assessed 14 days after treatment
How it was run: as §2

Monochoria vaginalis [7] = test: as above; conditions: 120 g/10a; treatment seven days after sowing in flooded paddy pot; assessed 14 days after treatment
How it was run: as §2

Scirpus juncoides [8] = test: as above; conditions: 120 g/10a; treatment seven days after sowing in flooded paddy pot; assessed 14 days after treatment
How it was run: as §2

Amaranthus viridis = test: Test Example 13: herbicidal effect test by soil treatment in upland field; conditions: 120 g/10a, 14 days after treatment
Description: (§3) A pot having a size of 36 cm^2 was filled with field soil (alluvial soil) and after mixing the soil of the surface layer of 1 cm with 20 grains of each weed seed of crabgrass, Echinochloa crus-galli, Chenopodium album and Amaranthus viridis, the surface layer was pressed lightly. One day after the sowing, an emulsifiable concentrate prepared according to Formulation Example 15 by using the compound shown in Table 11 below was diluted with water, and the water-diluted formulation was sprayed on the soil surface at a ratio of 100 liter per 10 are. The application rate of the active ingredient, by conversion, corresponded to 120 g per 10 are. Fourteen Days after the formulation treatment, the herbicidal effect was evaluated by the same criteria as in Test Example 11.

Chenopodium album = test: as above; conditions: 120 g/10a, 14 days after treatment
Description: as §3

Echinochloa crus-galli [9] = test: as above; conditions: 120 g/10a, 14 days after treatment
Description: as §3

crabgrass = test: as above; conditions: 120 g/10a, 14 days after treatment
Description: as §3

| Compound | Weed suppression rate (%) Echinochloa crus-galli (Echinochloa crus-galli [1]) | Weed suppression rate (%) Lindemia pyxidaria (Lindernia pyxidaria [2]) | Weed suppression rate (%) Monochoria vaginalis (Monochoria vaginalis [3]) | Weed suppression rate (%) Scirpus juncoides (Scirpus juncoides [4]) | Weed suppression rate (%) Echinochloa crus-galli (Echinochloa crus-galli [5]) | Weed suppression rate (%) Lindemia pyxidaria (Lindernia pyxidaria [6]) | Weed suppression rate (%) Monochoria vaginalis (Monochoria vaginalis [7]) | Weed suppression rate (%) Scirpus juncoides (Scirpus juncoides [8]) | herbicidal effect, Amaranthus viridis (Amaranthus viridis) | herbicidal effect, Chenopodium album (Chenopodium album) | herbicidal effect, Echinochloa crus-galli (Echinochloa crus-galli [9]) | herbicidal effect, Crabgrass (crabgrass) |
| --- | --- | --- | --- | --- | --- | --- | --- | --- | --- | --- | --- | --- |
| Cc1cc(Cl)ccc1N(C(=O)n1cnn(S(=O)(=O)C2CCCCC2)c1=O)C(C)C [Compound 11-309] | 90% | 80% | 80% | 90% | 90% | 80% | 80% | 90% | 90% | 80% | 80% | 90% |
| CCN(CC)C(=O)n1cnn(S(=O)(=O)c2ccccc2)c1=O [Compound 11-352] | 100% | 60% | 50% | 60% | 100% | 70% | 60% | 60% | 0% | 40% | 80% | 80% |
| CC(C)N(C(=O)n1cnn(S(=O)(=O)c2ccccc2)c1=O)c1ccc(F)cc1 [Compound 11-358] | 90% | 80% | 80% | 90% | 90% | 80% | 80% | 90% | 90% | 80% | 80% | 90% |
| CC(C)N(C(=O)n1cnn(S(=O)(=O)c2ccccc2F)c1=O)c1c(F)cc(F)cc1F [Compound 11-406] | 100% | 100% | 80% | 80% | 100% | 70% | 80% | 80% | 30% | 30% | 100% | 90% |
| CC(C)N(C(=O)n1cnn(S(=O)(=O)c2ccc(F)cc2)c1=O)c1c(F)cccc1F [Compound 11-477] | 100% | 90% | 70% | 100% | 100% | 60% | 70% | 70% | 70% | 70% | 100% | 100% |
| Cc1cc(F)ccc1N(C(=O)n1cnn(S(=O)(=O)c2ccc(F)cc2)c1=O)C(C)C [Compound 11-488] | 100% | 100% | 80% | 100% | 100% | 100% | 100% | 80% | 60% | 60% | 60% | 70% |
| CCN(CC)C(=O)n1cnn(S(=O)(=O)c2cccc(Cl)c2)c1=O [Compound 11-538] | 50% | 40% | 40% | 40% | 70% | 70% | 70% | 70% | 40% | 40% | 80% | 60% |
| CC(C)N(C(=O)n1cnn(S(=O)(=O)c2cccc(Cl)c2)c1=O)c1ccc(F)cc1F [Compound 11-550] | 90% | 90% | 80% | 80% | 70% | 90% | 90% | 80% | 0% | 0% | 90% | 90% |
| CC(C)N(C(=O)n1cnn(S(=O)(=O)c2ccc(Cl)cc2)c1=O)c1ccc(F)cc1F [Compound 11-588] | 90% | 90% | 90% | 90% | 80% | 90% | 90% | 70% | 40% | 80% | 80% | 60% |
| CC(C)N(C(=O)n1cnn(S(=O)(=O)c2ccc(Br)cc2)c1=O)c1ccc(F)cc1F [Compound 11-616] | 90% | 90% | 90% | 90% | 50% | 80% | 80% | 60% | 80% | 80% | 80% | 40% |
| CCN(CC)C(=O)n1cnn(S(=O)(=O)c2ccccc2C)c1=O [Compound 11-622] | 90% | 40% | 0% | 40% | 90% | 50% | 50% | 50% | 40% | 40% | 90% | 80% |
